Entries after “also recorded” stand apart in the source; their conditions may differ. Non-standard residues stand in square brackets, D forms with d. Residues, ends and D or L forms follow the SMILES beside them. No end group written: not given here. *: point of attachment. pS = N[C@@H](COP(=O)(O)O)C(=O)O; Cbz = O=C(OCc1ccccc1)*

One data set concerns the target T1, β-TrCP1 (Homo sapiens, UniProt Q9Y297).
T1 construct: host or cells: cell-free in vitro transcription/translation in reticulocyte lysate
T1 sequence (Q9Y297 1-605): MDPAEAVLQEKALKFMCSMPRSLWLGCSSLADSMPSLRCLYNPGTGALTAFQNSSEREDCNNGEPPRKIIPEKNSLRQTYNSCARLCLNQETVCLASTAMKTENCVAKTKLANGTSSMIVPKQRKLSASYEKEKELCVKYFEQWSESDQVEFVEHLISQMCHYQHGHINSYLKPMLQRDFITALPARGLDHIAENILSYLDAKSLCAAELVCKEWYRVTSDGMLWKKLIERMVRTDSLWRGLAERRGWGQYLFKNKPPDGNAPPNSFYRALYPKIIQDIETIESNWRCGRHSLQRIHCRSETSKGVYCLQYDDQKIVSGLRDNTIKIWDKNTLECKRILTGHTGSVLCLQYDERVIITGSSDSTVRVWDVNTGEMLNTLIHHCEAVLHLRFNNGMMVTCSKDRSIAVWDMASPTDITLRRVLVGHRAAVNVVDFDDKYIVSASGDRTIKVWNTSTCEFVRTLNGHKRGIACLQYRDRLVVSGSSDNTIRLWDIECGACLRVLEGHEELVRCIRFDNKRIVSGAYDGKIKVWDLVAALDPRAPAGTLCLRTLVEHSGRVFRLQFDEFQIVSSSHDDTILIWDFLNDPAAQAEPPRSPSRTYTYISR
Description: In vitro peptide binding assay with 35S-labeled in vitro translated β-TrCP1. The following applies: autoradiography; Fbxw2 and Fbxw4 as comparison. The protocol: Peptide binding assay. The peptides were coupled to agarose beads using the Aminolink Kit (Pierce, Rockford, Ill.). Coupled BimEL, β-TrCP1/2, RSK1/2, or Cdc25A peptides (10 mg) were incubated with ^35S-methionine-labeled in vitro-translated β-TrCP1/2, FBXW2 or FBXW4, using the TNT-coupled reticulocyte lysate system (Promega, Madison, Wis.) in the presence of 5 μCi of ^35S-labeled methionine (Amersham Biosciences, Piscataway, N.Y.). Agarose beads were washed with RIPA buffer and binding was assayed by SDS-PAGE followed by autoradiography.
In this experiment in vitro binding assays were performed using in, vitro translated β-TrCP1 and a purified BimEL peptide composed of 13 amino-acids containing the degron motif. The in vitro binding assays were performed between ^35S-labeled in vitro transcribed/translated β-Trcp1, Fbxw2 and Fbxw4 and beads-coupled BimEL peptide ^88[…]^100 (SEQ ID NO:24) or BimEL phosphopeptide ^88CLSRSpSpSGYFpSFD^100 (SEQ ID NO:25). Bound proteins were eluted and subjected to electrophoresis and autoradiography.

Data set [1] has as its system BimEL. Nature of the data set: PMA-induced BimEL degradation in HEK293 cells (immunoblot). The data set is classed as cell-based, human. An excerpt: siRNA. β-TrCP1/2 siRNA […] (SEQ ID NO:19) (Guardavaccaro et al., In vivo Dev Cell, 2003, 4:799-812; Margottin-Goguet cl al., Dev Cell, 2003; 4:813-26); RSK1 siRNA […] (SEQ ID NO:21) and RSK2 siRNA […] (SEQ ID NO:22) (Anjum et al., Curr Biol., 2005, 15:1762-7; Roux et al., J Biol. Chem., 2007, 282:14056-64). Control oligonucleotide was a dsRNA oligo to LacZ mRNA […] (SEQ ID NO:28). All siRNA oligonucleotides were from Dharmacon Research Inc. (Lafayette, Colo.). Cells were transfected with siRNA duplexes by Oligofectamine (Invitrogen, Carlsbad, Calif.), following manufacturer's instructions. Cells were transfected with the oligos twice (at 24 and 48 hours after plating) using oligofectamine (Invitrogen) for HEK293, HiPerFect (Qiagen) for NSCLC cell lines, or the AMAXA nucleofactor (Amaxa Inc. Gaithersburg, Md.) for CD4+ human T cell blasts at day 5, according to manufacturer's recommendations. 24 or 48 hours after the last transfection, cells were collected and analyzed.
(§1) When βTrCP1/2 is silenced (FIG. 4A) or RSK1/2 is silenced (FIG. 4B), BimEL's degradation (induced with PMA) is inhibited. […] For the experiments shown in FIG. 4A, HEK293 cells were treated with control siRNA (SEQ ID NO:28) or siRNA targeting βTrcp1/2 (SEQ ID NO:19). 48 hours after siRNA treatment cells were treated with PMA or with PMA+MG 132 (last four lanes) for indicated times. Protein extracts were immunoblotted for the indicated proteins.
For the experiments shown in FIG. 4B, HEK293 cells were treated with control siRNA (SEQ ID NO:28) or siRNA targeting RSK 1 (SEQ ID NO:21) and RSK2 (SEQ ID NO:22). 48 hours after siRNA treatment cells were treated with PMA for indicated times. Protein extracts were immunoblotted for the indicated proteins.

The subject of the next data set is βTrCP. Nature of the data set: βTrCP knockdown efficiency (Cdc25A accumulation, RT-PCR). The data set is classed as cell-based, human. The following applies: HEK293 cells; accumulation of Cdc25A, confirmed by RT-PCR. The protocol: FIGS. 8A-E represent quantitative analysis of βTrCP1 mRNA in HEK293, HCC827, H1650 cell lines and CD4+ human T cells treated with an siRNA oligo targeting both βTrCP1 and βTrCP2 mRNAs (SEQ ID NO:19). Representative examples showing knockdown efficiency for βTrCP siRNA by RT-PCR analysis with oligo-dT-primed, reverse-transcribed cDNA derived from total RNA that was prepared from the indicated cells transfected with either control or βTrCP siRNAs. Quantitative PCR was conducted using locus-specific primers: forward […] (SEQ ID NO:29) and reverse […] (SEQ ID NO:30) (n=3, ±SD). For HEK293 cells, knockdown efficiency was additionally analyzed by βTrCP1 immunoprecipitation and subsequent immunoblot analysis (D).
as §1

The next data set has as its system H1650 cells. To be noted: EGFR mutant NSCLC; cited from earlier work.
Data set [2] has as its system BimEL. Nature of the data set: BimEL accumulation in MEFs after pharmacological RSK inhibition (immunoblot). The data set is classed as cell-based, mouse. To be noted: MEFs, 0, 1 and 5 μM BI-D1870 for 12 hours, immunoblot for Bim. Here is the method: MEFs were treated with 0, 1 and 5 μM BI-D1870 for 12 hours. Cell extracts were then immunoblotted for the Bim and HSP70 (control) proteins.
Western Blotting (IP-Western). Immuno-blotting was conducted essentially as described in Donzelli et al. (2002), supra. Three pieces of the Whatman paper were wetted in Western transfer buffer (48 mM Tris Base, 39 mM Glycine, 0.0375% SDS, and 20% Methanol in ddH2O), excess of buffer was removed and pieces were placed onto the platinum anode (BIO-RAD semi-dry trans-blot SD). The nitrocellulose was wetted in the same buffer and placed onto the Whatman paper. The gel was wetted in the transfer buffer for 5 to 10 seconds and placed onto the nitrocellulose. Three pieces of Whatman paper were wetted and, removing excess of buffer, placed onto the gel. Air bubbles were removed throughout this procedure. The trans-blot cathode was placed onto the stack. The gel was transferred at a constant voltage between 15 to 25V for 30 minutes.

The next data set deals with primary thymocytes. Description: Cell death of primary thymocytes from Bim+/+ or Bim−/− mice (propidium iodide flow cytometry). The following applies: primary thymocytes (T cells) from Bim+/+ or Bim−/− mice, 10 mM BI-D1870, 0-5 days. The data set is classed as cell-based, mouse. The protocol:
Cell death was induced by addition of 10 mM BI-D1870 for 0-5 days in primary thymocytes obtained from Bim+/+ or Bim−/− mice. Cell viability was determined by flow cytometric analysis by staining the cells with propidium iodide. Cell debris was excluded from analysis based on its forward and sideward scatter characteristics. The experiment was performed in triplicate using 3 Bim+/+ and 2 Bim−/− mice for each experiment. Data shown are the means±1 SD.
Cells. HeLa (from ATCC) and U2OS (from ATCC) cells were cultured essentially as described in Donzelli et al. (EMBO J., 2002; 21:4875-84). Cells were grown at 37° C. in a 5% CO2 atmosphere in Dulbecco's modified Eagle's medium (Euroclone) supplemented with 10% bovine calf serum (Hyclone) and 2 mM L-glutamine (Euroclone), or in DMEM containing 5% fetal calf serum (FCS, from GIBCO). HEK293 (from ATCC), Bim−/− MEFs and Bax−/−; Bak−/− immortalized mouse embryo fibroblasts (MEFs) (from Dr. Huang at The Walter and Eliza Hall Institute of Medical Research, Australia; see Bouillet et al., Science, 1999, 286:1735-1738; Lindsten et al., Mol. Cell, 2000, 6:1389-1399) were maintained in Dulbecco's modified Eagle's medium (DMEM) containing 10% fetal bovine serum (FBS, from GIBCO). H1650 and HCC827 cells (both from ATCC) were maintained in RPMI-1640 medium (GIBCO) containing 10% FBS. Primary thymocytes were obtained from 6 week Bim+/+ or Bim−/− mice. […]

In data set [3] the test system is BimEL. Description: In vivo phosphorylation of BimEL on Ser93/94/98 (immunoprecipitation, phospho-specific antibody). To be noted: cells serum deprived 24 hours, PMA for 10 minutes. The data set is classed as cell-based. The protocol:
Serines 93, 94 and 98 were also shown to be phosphorylated in vivo following activation of ERK by either serum addition or PMA (FIG. 2C). In this experiment, BimEL from cells treated with PMA as well as from cells released from serum starvation were immunoprecipitated. In the experiments in FIG. 2C, cells were serum deprived (SD) for 24 hours, serum released (SR) for 10 minutes (lane 2) or treated with PMA for 10 minutes (lane 3-5). Whole cell extracts (WCE) were subjected to immunoprecipitation using HA resin (α-HA) followed by immunoblotting for β-TrCP1, and antiHA (for BimEL).

Where [4] appears, read: siRNAs targeting RSK1 and RSK2 used together, PMA 48 hours after siRNA.

In the case of “^88CLSRSpSpSGYFpSFD^100 (CLSRS[pS][pS]GYF[pS]FD; listed as Homo sapiens) [SEQ ID NO:25, BimEL phosphopeptide of 13 amino acids containing the degron motif]”, the “binding of βTrCP1 to beads-coupled BimEL peptide” value in the data set with β-TrCP1 is “binds specifically”. On to “AGCGCUGAGAAUGGACAGCAA (listed as RNA, chemistry not given here; listed as Homo sapiens) [SEQ ID NO:22, siRNA for human RSK2]”, for which the “effect on PMA-induced BimEL degradation” value in the data set on BimEL [1] (setting [4]) is listed as “counteracted the effect of PMA on BimEL degradation, stabilizing BimEL”. Turning to GUGGAAUUUGUGGAACAUC [SEQ ID NO:19], the “effect on PMA-induced BimEL degradation” value in the data set on BimEL [1] (siRNA targeting βTrcp1/2, PMA 48 hours after siRNA) is given as “counteracted the effect of PMA on BimEL degradation, stabilizing BimEL”. Besides, the βTrCP knockdown result in the data set with βTrCP is on record as “efficient βTrCP knockdown”.

On to “CCCAACAUCAUCACUCUGAAA (listed as RNA, chemistry not given here; listed as Homo sapiens) [SEQ ID NO:21, siRNA for human RSK1]”, for which the “effect on PMA-induced BimEL degradation” value in the data set with BimEL [1] (setting [4]) is “counteracted the effect of PMA on BimEL degradation, stabilizing BimEL”. In the case of `COc1cc2ncnc(Nc3ccc(F)c(Cl)c3)c2cc1OCCCN1CCOCC1` [gefitinib], the sensitivity to gefitinib entry in the data set with H1650 cells is recorded as “not”. With `CC(C)CCN1c2nc(Nc3cc(F)c(O)c(F)c3)ncc2N(C)C(=O)C1C` (stereo not shown) [BI-D1870], in the data set with BimEL [2], the BimEL accumulation result is reported as “induced BimEL accumulation; also recorded: induces an accumulation of BimEL”. In the data set with primary thymocytes, the “Bim-dependent cell death / cell viability” value is given as “from wild-type mice, but not from Bim^−/− mice, died; also recorded: induces Bim-dependent cell death”. For the compound `CCCCCCCCCCCCCC(=O)O[C@@H]1[C@@H](C)[C@@]2(O)[C@@H](C=C(CO)C[C@]3(O)C(=O)C(C)=C[C@@H]23)[C@@H]2C(C)(C)[C@]12OC(C)=O` [PMA], the “phosphorylation of BimEL on Ser93/94/98” value in the data set with BimEL [3] was “rapidly induced”.

For `CC(C)C[C@@H](C=O)NC(=O)[C@H](CC(C)C)NC(=O)[C@H](CC(C)C)NC(=O)OCc1ccccc1` [MG132] (Cbz-Leu-Leu-Leu-aldehyde), the “effect on PMA-induced BimEL degradation” value in the data set with BimEL [1] (PMA+MG 132) is reported as “Inhibition of BimEL's degradation”.

These data come from patent US8093043B2, “β-TrCP1, β-TrCP2 and RSK1 or RSK2 inhibitors and methods for sensitizing target cells to apoptosis” (New York University, priority 2008, dated 2012).
